Reference: patent publication US11236047B2 (ASTEX THERAPEUTICS LIMITED, priority 2017, dated 2022)
Like-named read-outs stand apart in the source and are kept apart here.

Experiments:
SN40R2 cells = experiment: Protocol B: SN40R2 CellTiter-Glo luminescent cell viability assay; conditions: for inhibition at 10 µM: read-out: SN40R2 % inhibition at 10, Protocol B, SN40R2, at 10 μM
Experimental: Protocol B: SJSA-1 and SN40R2 Assays
The CellTiter-Glo® Luminescent Cell Viability Assay is a homogeneous method to determine the number of viable cells in culture based on quantitation of the ATP present, which signals the presence of metabolically active cells. […] 100 μl of CTG reagent (Promega #G7573) was added to all wells and luminescence was measured on the topcount. The EC50 values were determined from a sigmoidal 4 parameter curve fit using XLfit in conjunction with Activity Base (IDBS; Guildford, Surrey, UK).

MDM2-p53 interaction = MDM2-p53 interaction (Homo sapiens (Human), UniProt Q00987); conditions: for inhibition at 0.001 µM: read-out: MDM2 % inhibition @0.0010; for inhibition at 0.003 µM: read-out: MDM2 % inhibition @0.0030; for inhibition at 0.03 µM: read-out: MDM2 % inhibition @0.030
SJSA-1 cells = experiment: Protocol B: SJSA-1 CellTiter-Glo luminescent cell viability assay
[1] = read-out: SJSA1 IC50, Protocol B, SJSA-1
[2] = read-out: SJSA1 IC50 (μM) (Protocol B), SJSA-1, Protocol B

Chain of MDM2-p53 interaction (Q00987 whole entry): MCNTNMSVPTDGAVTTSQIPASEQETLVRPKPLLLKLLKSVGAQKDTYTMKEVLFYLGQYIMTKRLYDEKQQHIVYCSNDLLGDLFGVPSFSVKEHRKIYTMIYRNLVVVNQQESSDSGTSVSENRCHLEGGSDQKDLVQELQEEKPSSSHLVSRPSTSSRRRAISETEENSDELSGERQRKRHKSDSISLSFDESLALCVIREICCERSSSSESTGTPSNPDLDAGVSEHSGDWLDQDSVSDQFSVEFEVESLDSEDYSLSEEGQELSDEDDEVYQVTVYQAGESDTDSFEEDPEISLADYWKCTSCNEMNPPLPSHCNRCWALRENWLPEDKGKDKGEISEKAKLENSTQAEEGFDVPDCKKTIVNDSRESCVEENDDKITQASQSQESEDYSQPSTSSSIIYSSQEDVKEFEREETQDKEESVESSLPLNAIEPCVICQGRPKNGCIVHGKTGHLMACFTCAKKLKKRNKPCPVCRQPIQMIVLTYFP

CCC(O)(c1cc(F)c2c(c1)C(=O)N(Cc1ncc(C#N)cn1)[C@@]2(OCC1(C#N)CC1)c1ccc(Cl)cc1)C1(F)CCN(C)CC1 (single isomer, unassigned) [Example 574]
inhibition at 10 µM (SN40R2 cells): 27%
inhibition at 0.001 µM (MDM2-p53 interaction): 45%

CCC(O)(c1cc(F)c2c(c1)C(=O)N(Cc1ncc(Cl)cn1)[C@@]2(OC)c1ccc(Cl)cc1)C1(F)CCN(C)CC1 (single isomer, unassigned) [Example 563]
inhibition at 10 µM (SN40R2 cells): 72%
inhibition at 0.001 µM (MDM2-p53 interaction): 76%

CCC(O)(c1cc(F)c2c(c1)C(=O)N(Cc1ncc(Cl)cn1)[C@@]2(OC)c1ccc(Cl)cc1)[C@H]1CC[C@H](O)CC1 (stereo partly drawn) [Example 511, (3R)-3-(4-chlorophenyl)-2-[(5-chloropyrimidin-2-yl)methyl]-4-fluoro-6-{1-hydroxy-1-[trans-4-hydroxycyclohexyl]propyl}-3-methoxy-2,3-dihydro-1H-isoindol-1-one]
inhibition at 10 µM (SN40R2 cells): 10%
inhibition at 0.001 µM (MDM2-p53 interaction): 72%

CCC(O)(c1cc(F)c2c(c1)C(=O)N(Cc1ncc(Cl)cn1)[C@@]2(O[C@H]1CCOC1)c1ccc(Cl)cc1)C1(F)CCN(C)CC1 (single isomer, unassigned) [Example 571]
inhibition at 10 µM (SN40R2 cells): 38%
inhibition at 0.001 µM (MDM2-p53 interaction): 77%

CC[C@@](O)(c1cc(F)c2c(c1)C(=O)N(Cc1ncc(C#N)cn1)[C@@]2(O[C@H]1CCOC1)c1ccc(Cl)cc1)C1(F)CCOCC1 [Example 507, 2-{[(1R)-1-(4-chlorophenyl)-7-fluoro-5-[(1R)-1-(4-fluorooxan-4-yl)-1-hydroxypropyl]-3-oxo-1-[(3S)-oxolan-3-yloxy]-2,3-dihydro-1H-isoindol-2-yl]methyl}pyrimidine-5-carbonitrile]
inhibition at 3 µM (SN40R2 cells; read-out: SN40R2 % inhibition at 3, Protocol B, SN40R2, at 3 μM): 5%
inhibition at 0.003 µM (MDM2-p53 interaction): 65%

CCC(O)(c1cc(F)c2c(c1)C(=O)N(Cc1ncc(Cl)cn1)[C@@]2(O[C@H]1C[C@@H](O)C1)c1ccc(Cl)cc1)C1(F)CCNCC1 (single isomer, unassigned) [Example 542]
inhibition at 10 µM (SN40R2 cells): -1%
inhibition at 0.01 µM (MDM2-p53 interaction; read-out: MDM2 % inhibition @0.010): 57%

CCC(O)(c1cc(F)c2c(c1)C(=O)N(Cc1ccc(Cl)cn1)[C@@]2(OC[C@@H](C)O)c1ccc(Cl)cc1)C1(F)CCNCC1 (single isomer, unassigned) [Example 549]
inhibition at 10 µM (SN40R2 cells): 33%
inhibition at 0.001 µM (MDM2-p53 interaction): 85%

CC[C@@](O)(c1cc(F)c2c(c1)C(=O)N(Cc1ncc(Cl)cc1O)[C@@]2(O[C@H]1CCOC1)c1ccc(Cl)cc1)C1CCN(C)CC1 [Example 568, 2-[(5-chloro-3-hydroxypyridin-2-yl)methyl]-3-(4-chlorophenyl)-4-fluoro-6-[(1S)-1-hydroxy-1-(1-methylpiperidin-4-yl)propyl]-3-[(3S)-oxolan-3-yloxy]-2,3-dihydro-1H-isoindol-1-one]
inhibition at 10 µM (SN40R2 cells): 36%
inhibition at 0.001 µM (MDM2-p53 interaction): 76%

CCC(O)(c1cc(F)c2c(c1)C(=O)N(Cc1ncc(C#N)cn1)[C@@]2(OC)c1ccc(Cl)cc1)[C@H]1CC[C@H](O)CC1 (stereo partly drawn) [Example 504, 2-{[(1R)-1-(4-chlorophenyl)-7-fluoro-5-{1-hydroxy-1-[trans-4-hydroxycyclohexyl]propyl}-1-methoxy-3-oxo-2,3-dihydro-1H-isoindol-2-yl]methyl}pyrimidine-5-carbonitrile]
inhibition at 10 µM (SN40R2 cells): 0%
inhibition at 0.001 µM (MDM2-p53 interaction): 71%

CC[C@@](O)(c1cc(F)c2c(c1)C(=O)N(Cc1ncc(Cl)cn1)[C@@]2(OC)c1ccc(Cl)cc1)C1CCN(C2COC2)CC1 [Example 551, (3R)-3-(4-chlorophenyl)-2-[(5-chloropyrimidin-2-yl)methyl]-4-fluoro-6-[(1S)-1-hydroxy-1-[1-(oxetan-3-yl)piperidin-4-yl]propyl]-3-methoxy-2,3-dihydro-1H-isoindol-1-one]
inhibition at 10 µM (SN40R2 cells): 13%
inhibition at 0.001 µM (MDM2-p53 interaction): 70%

CCC(O)(c1cc(F)c2c(c1)C(=O)N(Cc1ncc(Cl)cn1)[C@@]2(O[C@H]1CCOC1)c1ccc(Cl)cc1)C1CCN(C)CC1 (single isomer, unassigned) [Example 449]
inhibition at 10 µM (SN40R2 cells): 19%
inhibition at 0.001 µM (MDM2-p53 interaction): 78%

CC[C@@](O)(c1cc(F)c2c(c1)C(=O)N(Cc1ncc(Cl)cn1)[C@@]2(O[C@H]1C[C@@H](O)C1)c1ccc(Cl)cc1)C1CCN(C)CC1 [Example 560, (3R)-3-(4-chlorophenyl)-2-[(5-chloropyrimidin-2-yl)methyl]-4-fluoro-6-[(1S)-1-hydroxy-1-(1-methylpiperidin-4-yl)propyl]-3-[cis-3-hydroxycyclobutoxy]-2,3-dihydro-1H-isoindol-1-one]
inhibition at 10 µM (SN40R2 cells): 3%
inhibition at 0.001 µM (MDM2-p53 interaction): 30%

CO[C@]1(c2ccc(Cl)cc2)c2c(F)cc(C(C)(O)C3CCN(C(C)=O)CC3)cc2C(=O)N1Cc1ncc(Cl)cc1CO (single isomer, unassigned) [Example 424]
IC50 (SJSA-1 cells; Homo sapiens, SJSA-1, read-out: SJSA1 IC50 (μM), Protocol B, SJSA-1): 0.69 µM
inhibition at 0.003 µM (MDM2-p53 interaction): 45%

CCC(O)(c1cc(F)c2c(c1)C(=O)N(Cc1ccc(C#N)cn1)[C@@]2(O[C@H]1CCOC1)c1ccc(Cl)cc1)C1(F)CCNCC1 (single isomer, unassigned) [Example 546]
inhibition at 10 µM (SN40R2 cells): 17%
inhibition at 0.001 µM (MDM2-p53 interaction): 86%

CCC(O)(CN1CCNCC1)c1cc(F)c2c(c1)C(=O)N(Cc1ncc(Cl)cn1)[C@@]2(OCC1(F)COC1)c1ccc(Cl)cc1 (single isomer, unassigned) [Example 539]
IC50 (SJSA-1 cells; [1]): 0.092 µM
inhibition at 0.001 µM (MDM2-p53 interaction): 41%

COc1ccc(CN2C(=O)c3cc(C(C)(O)c4cnn(C)c4)cc(F)c3[C@]2(OCC2(O)CC2)c2ccc(Cl)cc2)nc1 (stereo partly drawn) [Example 228, (3R)-3-(4-chlorophenyl)-4-fluoro-6-[1-hydroxy-1-(1-methyl-1H-pyrazol-4-yl)ethyl]-3-[(1-hydroxycyclopropyl)methoxy]-2-[(5-methoxypyridin-2-yl)methyl]-2,3-dihydro-1H-isoindol-1-one]
IC50 (SJSA-1 cells; [2]): 0.21 µM
MDM2 % at stated concentration (MDM2-p53 interaction; at 0.010 μM): 61%@0.010

CCC(O)(c1cc(F)c2c(c1)C(=O)N(Cc1ncc(Cl)cn1)[C@@]2(O[C@H]1C[C@@H](O)C1)c1ccc(Cl)cc1)C1(F)CCN(C)CC1 (single isomer, unassigned) [Example 570]
inhibition at 10 µM (SN40R2 cells): 26%
inhibition at 0.001 µM (MDM2-p53 interaction): 83%

CCC(O)(c1cc(F)c2c(c1)C(=O)N(Cc1ncc(Cl)cc1O)[C@@]2(O[C@H]1C[C@@H](O)C1)c1ccc(Cl)cc1)c1cn(C)cn1 (single isomer, unassigned) [Example 487]
inhibition at 10 µM (SN40R2 cells): 12%
inhibition at 0.001 µM (MDM2-p53 interaction): 59%

CC[C@](O)(c1cc(F)c2c(c1)C(=O)N(Cc1ncc(C#N)cn1)[C@@]2(O[C@H]1C[C@@H](O)C1)c1ccc(Cl)cc1)C1(F)CCOCC1 [Example 506, 2-{[(1R)-1-(4-chlorophenyl)-7-fluoro-5-[(1S)-1-(4-fluorooxan-4-yl)-1-hydroxypropyl]-3-oxo-1-[cis-3-hydroxycyclobutoxy]-2,3-dihydro-1H-isoindol-2-yl]methyl}pyrimidine-5-carbonitrile]
inhibition at 10 µM (SN40R2 cells): 2%
inhibition at 0.03 µM (MDM2-p53 interaction): 36%

CCC(O)(c1cc(F)c2c(c1)C(=O)N(Cc1ncc(Cl)cn1)[C@@]2(OCCO)c1ccc(Cl)cc1)[C@H]1CC[C@H](O)CC1 (single isomer, unassigned) [Example 519]
IC50 (SJSA-1 cells; [1]): 1.9 µM
inhibition at 0.03 µM (MDM2-p53 interaction): 35%

CCC(O)(c1cc(F)c2c(c1)C(=O)N(Cc1ncc(C#N)cn1)[C@@]2(O[C@H]1CCOC1)c1ccc(Cl)cc1)C1(F)CCN(C)CC1 (single isomer, unassigned) [Example 561]
inhibition at 10 µM (SN40R2 cells): 12%
inhibition at 0.001 µM (MDM2-p53 interaction): 47%

CCC(O)(c1cc(F)c2c(c1)C(=O)N(Cc1ccc(Cl)cn1)[C@@]2(O[C@H]1CCOC1)c1ccc(Cl)cc1)C1(F)CCNCC1 (single isomer, unassigned) [Example 548]
inhibition at 10 µM (SN40R2 cells): 111%
inhibition at 0.001 µM (MDM2-p53 interaction): 82%

CCC(O)(c1cc(F)c2c(c1)C(=O)N(Cc1ncc(C#N)cn1)[C@@]2(O[C@H]1CCOC1)c1ccc(Cl)cc1)C1(F)CCNCC1 (single isomer, unassigned) [Example 547]
inhibition at 10 µM (SN40R2 cells): 4%
inhibition at 0.001 µM (MDM2-p53 interaction): 82%

CCCC(O)(c1cc(F)c2c(c1)C(=O)N(Cc1ccc(C#N)cn1)[C@@]2(O[C@H]1CCOC1)c1ccc(Cl)cc1)c1cn(C)cn1 (single isomer, unassigned) [Example 472]
inhibition at 10 µM (SN40R2 cells): 10%
inhibition at 0.003 µM (MDM2-p53 interaction): 48%

Cn1cc(C(C)(O)c2cc(F)c3c(c2)C(=O)N(Cc2ncc(F)cc2F)[C@@]3(OCC2(O)CC2)c2ccc(Cl)cc2)cn1 (single isomer, unassigned) [Example 350]
IC50 (SJSA-1 cells; [2]): 0.51 µM
MDM2 % at stated concentration (MDM2-p53 interaction; at 0.030 μM): 54%@0.030

CCC(O)(c1cc(F)c2c(c1)C(=O)N(Cc1ncc(Cl)cn1)[C@@]2(OCC1(C(N)=O)CC1)c1ccc(Cl)cc1)c1cn(C)cn1 (stereo partly drawn) [Example 485, 1-({[(1R)-1-(4-chlorophenyl)-2-[(5-chloropyrimidin-2-yl)methyl]-7-fluoro-5-[1-hydroxy-1-(1-methyl-1H-imidazol-4-yl)propyl]-3-oxo-2,3-dihydro-1H-isoindol-1-yl]oxy}methyl)cyclopropane-1-carboxamide]
IC50 (SJSA-1 cells; [1]): 4.2 µM
inhibition at 0.1 µM (MDM2-p53 interaction; read-out: MDM2 % inhibition @0.10): 58%

CCC(O)(c1cc(F)c2c(c1)C(=O)N(Cc1ccc(C#N)nc1)[C@@]2(O[C@H]1CCOC1)c1ccc(Cl)cc1)c1cn(C)cn1 (single isomer, unassigned) [Example 432]
IC50 (SJSA-1 cells; [1]): 6.2 µM
inhibition at 0.03 µM (MDM2-p53 interaction): 45%

CCC(O)(c1cc(F)c2c(c1)C(=O)N(Cc1ccc(C#N)cn1)[C@@]2(O[C@H]1CCOC1)c1ccc(Cl)cc1)c1ccn(C)n1 (single isomer, unassigned) [Example 336]
IC50 (SJSA-1 cells; [1]): 0.16 µM
inhibition at 0.001 µM (MDM2-p53 interaction): 56%

CCC(O)(c1cc(F)c2c(c1)C(=O)N(Cc1ncc(C#N)cn1)[C@@]2(OC[C@H]1C[C@H](O)C1)c1ccc(Cl)cc1)c1cn(C)cn1 (single isomer, unassigned) [Example 483]
IC50 (SJSA-1 cells; [1]): 0.2 µM
inhibition at 0.001 µM (MDM2-p53 interaction): 58%
